The subject of this experiment is WT Mtb Erdman strain. In words: Microplate Alamar Blue Assay (MABA), Mtb growth inhibition. In kind it is cell-based, Mycobacterium tuberculosis. As to conditions: Mycobacterium tuberculosis, ERDMAN, 168 h, Middlebrook 7H9 media, 7 days at 37° C. in 5% CO2. (In general: Alamar Blue is a resazurin reagent that responds to reducing activity.)
For orientation: IC50 means the concentration at which inhibition is half-maximal. Low readings indicate greater potency, high ones weaker potency. `Cc1cc2c(NCCCc3ccccc3)nc(OC(F)F)nc2s1` [Example 580, 2-(difluoromethoxy)-6-methyl-N-(3-phenylpropyl)thieno[2,3-d]pyrimidin-4-amine] registered an IC50 above 10000 nM.

With `Cc1cc2c(NCCCc3ccccc3)nc([S+](C)[O-])nc2s1` (stereo not shown) [Example 581, 6-methyl-2-(methylsulfinyl)-N-(3-phenylpropyl)thieno[2,3-d]pyrimidin-4-amine], the IC50 turned out to be 1300 nM.

`C=C(C)c1nc(NCCCc2ccccc2)c2cc(C)sc2n1` [Example 582, 6-methyl-N-(3-phenylpropyl)-2-(prop-1-en-2-yl)thieno[2,3-d]pyrimidin-4-amine]: the concentration for half-maximal inhibition (IC50) turned out to be 170 nM.

On to `Cc1nc(NCCCc2ccccc2)c2nc(Cl)sc2n1` [Example 583, 2-chloro-5-methyl-N-(3-phenylpropyl)thiazolo[5,4-d]pyrimidin-7-amine], for which the midpoint of inhibition, the IC50, lay at 5800 nM.

Consider `Cc1nc(NCCCc2ccccc2)c2ncsc2n1` [Example 584, 5-methyl-N-(3-phenylpropyl)thiazolo[5,4-d]pyrimidin-7-amine], for which the IC50 was above 10000 nM.

For `Cc1cc2c(NCCCc3ccccc3)nc(-n3ccnn3)nc2s1` [Example 586, 6-methyl-N-(3-phenylpropyl)-2-(1H-1,2,3-triazol-1-yl)thieno[2,3-d]pyrimidin-4-amine], the half-inhibitory concentration (IC50) turned out to be 200 nM.

In turn, `Cc1cc2c(NCCCc3ccc(OC(F)(F)F)cc3)nc(-n3ccnn3)nc2s1` [Example 587, 6-methyl-2-(1H-1,2,3-triazol-1-yl)-N-(3-(4-(trifluoromethoxy)phenyl)propyl)thieno[2,3-d]pyrimidin-4-amine] came in with an IC50 of 1100 nM.

In turn, `CCc1nc(NCCCc2ccccc2O)c2cc(C)sc2n1` [Example 588, 2-(3-((2-ethyl-6-methylthieno[2,3-d]pyrimidin-4-yl)amino)propyl)phenol] gave a half-inhibitory concentration (IC50) of 4400 nM.

The compound `Cc1cc2c(NCCCc3ccccc3O)nc(C(F)(F)F)nc2s1` [Example 589, 2-(3-((6-methyl-2-(trifluoromethyl)thieno[2,3-d]pyrimidin-4-yl)amino)propyl)phenol] came in with a half-inhibitory concentration (IC50) above 10000 nM.

The compound `CCc1nc(NCCCc2ccc(Nc3ccccc3)cc2)c2cc(C)sc2n1` [Example 590, 2-ethyl-6-methyl-N-(3-(4-(phenylamino)phenyl)propyl)thieno[2,3-d]pyrimidin-4-amine] had an IC50 of 530 nM.

On to `CCc1nc(NCCCc2ccc(N=[N+]=[N-])cc2)c2cc(C)sc2n1` [Example 591, N-(3-(4-azidophenyl)propyl)-2-ethyl-6-methylthieno[2,3-d]pyrimidin-4-amine], for which the IC50 was above 10000 nM.

Compound `Cc1cc2c(NCCCc3ccc(N=[N+]=[N-])cc3)nc(C(F)(F)F)nc2s1` [Example 592, N-(3-(4-azidophenyl)propyl)-6-methyl-2-(trifluoromethyl)thieno[2,3-d]pyrimidin-4-amine] returned a 50% inhibitory concentration (IC50) of 4400 nM.

Compound `CCc1nc(NCCCc2ccc(-n3ccnn3)cc2)c2cc(C)sc2n1` [Example 593, N-(3-(4-(1H-1,2,3-triazol-1-yl)phenyl)propyl)-2-ethyl-6-methylthieno[2,3-d]pyrimidin-4-amine] came in with a half-inhibitory concentration (IC50) of 530 nM.

In turn, `Cc1cc2c(NCCCc3ccc(-c4ccc[nH]4)cc3)nc(-c3ccoc3)nc2s1` [Example 594, 2-(furan-3-yl)-6-methyl-N-(3-[4-(1H-pyrrol-2-yl)phenyl]propyl)thieno[2,3-d]pyrimidin-4-amine] showed an IC50 of 240 nM.

`Cc1cc2c(NCCCc3ccc(-c4ccc(OC(F)(F)F)cc4)cc3)nc(OCC(F)(F)F)nc2s1` [Example 596, 6-methyl-2-(2,2,2-trifluoroethoxy)-N-(3-(4′-(trifluoromethoxy)-[1,1′-biphenyl]-4-yl)propyl)thieno[2,3-d]pyrimidin-4-amine] had an IC50 of 29 nM.

In the case of `Cc1cc2c(NCCCc3ccc(-c4ccc(OC(F)(F)F)cc4)cc3)nc(SC(F)(F)F)nc2s1` [Example 597, 6-methyl-N-(3-(4′-(trifluoromethoxy)-[1,1′-biphenyl]-4-yl)propyl)-2-((trifluoromethyl)thio)thieno[2,3-d]pyrimidin-4-amine], the 50% inhibitory concentration (IC50) was found to be 6300 nM.

Regarding `Cc1cc2c(NCCCc3ccc(-c4ccc(OC(F)(F)F)cc4)cc3)nc(Br)nc2s1` [Example 598, 2-bromo-6-methyl-N-(3-(4′-(trifluoromethoxy)-[1,1′-biphenyl]-4-yl)propyl)thieno[2,3-d]pyrimidin-4-amine], the IC50 was found to be 81 nM.

On to `CC(=O)Nc1nc(NCCCc2ccc(-c3ccc(OC(F)(F)F)cc3)cc2)c2cc(C)sc2n1` [Example 599, N-(6-methyl-4-((3-(4′-(trifluoromethoxy)-[1,1′-biphenyl]-4-yl)propyl)amino)thieno[2,3-d]pyrimidin-2-yl)acetamide], for which the IC50 was above 370 nM.

Compound `Cc1cc2c(NCCCc3ccc(-c4ccc(C(=O)O)cc4)cc3)nc(-c3ccoc3)nc2s1` [Example 601, 4′-(3-((2-(furan-3-yl)-6-methylthieno[2,3-d]pyrimidin-4-yl)amino)propyl)-[1,1′-biphenyl]-4-carboxylic acid] came in with a half-inhibitory concentration (IC50) of 530 nM.

Consider `Cc1cc2c(NCCCc3ccc(-c4ccc(OC(F)(F)F)cc4)cc3)nc(-n3ccnn3)nc2s1` [Example 602, 6-methyl-2-(1H-1,2,3-triazol-1-yl)-N-(3-(4′-(trifluoromethoxy)-[1,1′-biphenyl]-4-yl)propyl)thieno[2,3-d]pyrimidin-4-amine], for which half-maximal inhibition (IC50) was put at 190 nM.

On to `Cc1cc2c(NCCCc3ccc(-n4cccc4)cc3)nc(-c3ccoc3)nc2s1` [Example 604, 2-(furan-3-yl)-6-methyl-N-(3-[4-(1H-pyrrol-1-yl)phenyl]propyl)thieno[2,3-d]pyrimidin-4-amine], for which half-maximal inhibition (IC50) was put at 28 nM.

As for `Cc1cc2c(NCCCc3ccc(-c4ccc(OC(F)(F)F)cc4)cc3)nc(C#N)nc2s1` [Example 605, 6-methyl-4-((3-[4′-(trifluoromethoxy)-[1,1′-biphenyl]-4-yl]propyl)amino)thieno[2,3-d]pyrimidine-2-carbonitrile], the IC50 was above 10000 nM.
